Experimental data as given in ChEMBL document CHEMBL4431300 (Medchemcomm, 2016).
Values after ≈ are worked out from the molar mass of the structure shown. Active and inactive are the calls of the source. The calls are words filed in the database; no cut-off is given here.

Columns and labels:
A2780 [1] = assay: Antiproliferative activity against human A2780 cells after 72 hrs at 37 degC by MTT assay; assay type: functional, cell-based; settings: A2780, 72 h
[2] = Antiproliferative activity against human A2780cis cells after 72 hrs at 37 degC by MTT assay; assay type: functional, cell-based
[3] = Antiproliferative activity against immortalized human ECRF24 cells after 72 hrs at 37 degC by CellTiter-Glo luminescence assay; assay type: functional; settings: ECRF24, 72 h
HEK293 = assay: Antiproliferative activity against HEK293 cells after 72 hrs at 37 degC by CellTiter-Glo luminescence assay; assay type: cell-based; settings: Homo sapiens, HEK293, 72 h
Chorioallantoic membrane [4] = assay: (§1) Antiangiogenic activity in chicken fertilized egg chorioallantoic membrane assessed as avascular zone by measuring reduction in number of branching points at 49 ug/kg/day, iv administered as bolus dose on embryo development day 11 for 3 days by epifluorescence microscopic analysis relative to control; assay type: functional; settings: Gallus gallus
Chorioallantoic membrane [5] = assay: as §1, with “20” for “49”; assay type: functional; settings: Gallus gallus
[6] = Antiproliferative activity against embryonic stem cells in intact mouse embryoid bodies; assay type: functional, cell-based
Chorioallantoic membrane [7] = assay: (§2) Antiangiogenic activity in chicken fertilized egg chorioallantoic membrane assessed as inhibition of vascular sprout formation at 487 ug/kg/day, iv administered as single bolus dose 1 min post 5 Jcm'-2 light irradiation on embryo development day 11 measured 24 hrs post dose by epifluorescence microscopic analysis; assay type: functional, organism-based; settings: Gallus gallus
Chorioallantoic membrane [8] = assay: as §2, with “inhibition” for “inhibition of”, “97” for “487”; assay type: functional, organism-based; settings: Gallus gallus
Homo sapiens = species: Homo sapiens; assay: Antimigratory activity against human ECRF24 cells assessed as wound closure at 6 to 50 uM after 7 hrs by wound healing assay; assay type: functional, cell-based
Chorioallantoic membrane [9] = assay: as §1, with “55” for “49”; assay type: functional; settings: Gallus gallus
A2780 [10] = assay: Antitumor activity against human A2780 cells implanted in chicken fertilized egg chorioallantoic membrane assessed as tumor growth inhibition at 487 ug/kg/day, iv administered as bolus dose on embryo development day 11 for 3 days measured up to 8 days post treatment relative to control; assay type: functional; settings: Gallus gallus, read-out: TGI
Chorioallantoic membrane [11] = assay: as §1, with “36” for “49”; assay type: functional; settings: Gallus gallus
Chorioallantoic membrane [12] = assay: as §2, with “64” for “487”; assay type: functional, organism-based; settings: Gallus gallus
Chorioallantoic membrane [13] = assay: as §2, with “435” for “487”; assay type: functional, organism-based; settings: Gallus gallus
A2780 [14] = assay: Antitumor activity against human A2780 cells implanted in chicken fertilized egg chorioallantoic membrane assessed as tumor growth inhibition at 64 ug/kg/day, iv administered as bolus dose on embryo development day 11 for 3 days measured up to 8 days post treatment relative to control; assay type: functional; settings: Gallus gallus, read-out: TGI
A2780 [15] = assay: Antitumor activity against human A2780 cells implanted in chicken fertilized egg chorioallantoic membrane assessed as tumor growth inhibition at 435 ug/kg/day, iv administered as bolus dose on embryo development day 11 for 3 days measured up to 8 days post treatment relative to control; assay type: functional; settings: Gallus gallus, read-out: TGI

## O=C(CCCc1ccc(N(CCCl)CCCl)cc1)OCCC(F)(F)C(F)(F)C(F)(F)C(F)(F)C(F)(F)C(F)(F)C(F)(F)C(F)(F)F
A2780 [1]
  IC50: 38 µM
[2]
  IC50: 25 µM
[3]
  IC50: 52 µM
HEK293
  IC50: 57 µM
Chorioallantoic membrane [4]
  inhibition in vivo at 0.049 mg/kg/day: 29%

## O=C(O)CCCc1ccc(N(CCCl)CCCl)cc1 [CHLORAMBUCIL]
A2780 [1]
  IC50: 12 µM
[2]
  IC50: 43 µM
[3]
  IC50: 8 µM
HEK293
  IC50: 25 µM
Chorioallantoic membrane [5]
  inhibition in vivo at 0.02 mg/kg/day: 33%
[6]
  IC50: 1.25 µg/mL (≈ 4.11 µM)

## O=C(CCCc1ccc(N(CCCl)CCCl)cc1)OCCC(F)(F)C(F)(F)C(F)(F)C(F)(F)C(F)(F)C(F)(F)C(F)(F)C(F)(F)C(F)(F)C(F)(F)F
A2780 [1]
  IC50: > 200 µM
[2]
  IC50: > 200 µM
[3]
  IC50: 66 µM
HEK293
  IC50: > 200 µM
Chorioallantoic membrane [7]
  inhibition: inactive
Chorioallantoic membrane [8]
  inhibition: inactive
Homo sapiens
  Activity: inactive
Chorioallantoic membrane [9]
  inhibition in vivo at 0.055 mg/kg/day: 59%
A2780 [10]
  inhibition in vivo at 0.487 mg/kg/day: 70%

## CCCCCCCCCCCCCCCCCCOC(=O)CCCc1ccc(N(CCCl)CCCl)cc1
A2780 [1]
  IC50: > 200 µM
[2]
  IC50: > 200 µM
[3]
  IC50: 89 µM
HEK293
  IC50: > 200 µM
Homo sapiens
  Activity: inactive
Chorioallantoic membrane [11]
  inhibition in vivo at 0.036 mg/kg/day: 20%
Chorioallantoic membrane [12]
  inhibition: Active
Chorioallantoic membrane [13]
  inhibition: inactive
A2780 [14]
  inhibition in vivo at 0.064 mg/kg/day: 53%
A2780 [15]
  inhibition in vivo at 0.435 mg/kg/day: 49.5%
